The test system of series [1] is Escherichia coli DH5@/pSodaLux (EBHJ1) [KCTC 10098BP]. In kind it is cell-based. The conditions noted are these: for bioluminescence in dependence on concentration of the toxic material: sodA promoter::LuxCDABE reporter, 96-well luminometer, 30° C., 0-2048 ppm, FIGS. 3-6. The procedure: The bioluminescent bacteria Escherichia coli DH5@/pSodaLux (EBHJ1) were cultured in a shaking incubator of 30° C. at 250 rpm, in the LB medium [DIFCO, USA] containing 25 μg/ml of kanamycin [Sigma Co., USA] until the OD reaches 0.8 at 600 nm. Then, 2 ml of the culture was cultured for about 4 hr in 100 ml of LB medium. […] The bioluminescence was measured at 30° C. with a 96-well luminometer [DYNEX Technologies, USA].
The bioluminescence is measured in BL (bioluminescence intensity). Increase in bioluminescence can be determined by comparing the bioluminescence when toxic material was injected (sample bioluminescence) and that when no toxic material was injected (control bioluminescence). The RBL (relative bioluminescence) is calculated by the following Equation 1. [formula]

The test system is the same in series [2]. Put plainly: Growth inhibition of the recombinant bioluminescent bacteria. In kind it is cell-based. The conditions noted are these: around 50 ppm.

Here are results for three compounds from US20030134348A1, “Recombinant bioluminescent bacteria Escherichia coli DH5@/pSodaLux (EBHJ1) [KCTC 10098BP] for monitoring oxidative stress” (priority 2001, published 2003).

SMILES strings stand for the structures.

Take `[Cl][Cd][Cl]` [cadmium chloride]: the “bioluminescence in dependence on concentration of the toxic material” value (from here on “bioluminescence in dependence”) in series [1] is on record as “the bioluminescence increased with the concentration”.

As to `OO` [hydrogen peroxide], the “bioluminescence in dependence” value in series [1] is “proportionally increasing bioluminescence”.

Consider `C[n+]1ccc(-c2cc[n+](C)cc2)cc1` [paraquat dichloride], for which the growth inhibition entry in series [2] is listed as “little growth inhibition”. Besides, in series [1] (around 50 ppm), the bioluminescence entry was “substantial bioluminescence”. The “bioluminescence in dependence” value in series [1] is “proportionally increasing bioluminescence”.
